# Results as given in patent US10336768B2, “Pyrimidine compounds and methods using the same” (Yuma Therapeutics, Inc., priority 2014, dated 2019).
# Values joined by “and” are separate entries in the source; they are usually repeats but may differ in a detail not shown here. Equal values may be shown once. Read-outs that look alike come from different tables or passages of the source. Marks after values point to notes of the source that are not given here.
# Experiments:
# [1] = test system: Hsp70; test: Hsp90 cell based functional assay (Western blot for Hsp70, Hsp90)
# Description: Cells were treated with compounds of the invention for 24 h and then lysed in a buffer containing NP-40, orthovanadate, and protease inhibitors. Western blots were performed with antibodies specific to Hsp70, Hsp90, or actin (as control).
# [2] = test system: P-glycoprotein (P-gp, MDR1); test: MDR1-MDCK permeability assay; type: in vitro ADME; details: dog, apical to basal
# From the text: (§1) Compounds may be assessed in MDR1-MDCK permeability assay or Caco-2 permeability assay to determine their permeability. Apical (A) to basal (B) permeability >3×10^−6 cm/sec and B→A/A→B asymmetry <3 for a compound are considered acceptable predictors of brain penetration, and compounds having such properties are unlikely to be P-glycoprotein (P-gp) substrates. Compound 20 has shown excellent permeability in MDR1-MDCK assay (A-B=28×10^−6 cm/s) with low asymmetry (B→A/A→B asymmetry=0.9).
# [3] = test system: P-gp (MDR1); test: MDR1-MDCK permeability assay; type: in vitro ADME; details: dog, read-out: B→A/A→B asymmetry
# From the text: as §1
# [4] = Mouse pharmacokinetics, plasma levels (LC-MS/MS); type: in vivo; details: for AUC(0-t): read-out: AUC(0-8 h); for half-life: read-out: Half life (t1/2) (converted)
# Description: (§2) Plasma and brain samples were taken pre-dose and at post dose time points of pre-dose, 15 and 30 minutes, 1, 2, and 8 hours. The pre-dose group was represented by 5 animals, whereas the post-dose groups were represented by 3 animals.
# (§3) Bioanalysis of mouse plasma samples for compound 20 was conducted by protein precipitation and LC-MS/MS with compound 22 as the internal standard. The method was based on a ‘generic assay’ and some method development was conducted to tailor that assay to the particular compound and internal standard. The eventual non-GLP assay was first tested by analyzing a bioanalytical run with spiked mouse plasma samples. The qualification run passed by the run acceptance criteria (see below). Bioanalysis was then conducted of plasma sample extracts and of brain sample homogenate extracts, using a calibration and quality control samples spiked in mouse plasma. The assay is described below.
# Compound 20 and compound 22 were extracted from the mouse plasma matrix by protein precipitation. To 20.0 μL of sample was added 10.0 μL of internal standard working solution (1000 ng/mL in MeOH) and 200 μL of MeCN. The mixture was vortexed (5 sec) and centrifuged (14000 rpm, 5 min). The supernatant was then recovered and evaporated to dryness. The residue was redissolved in 100 μL of redissolving solution (80:20 v:v of mobile phases A:B). For analysis, 20.0 μL was injected in to the LC-MS/MS system.
# All chromatography was done with a type 1100 liquid chromatograph (Agilent), equipped with an auto-injector. The analytical column was an Xbridge C18 3.5 μm 2.1×50 mm (Waters), employed at 50° C. The mobile phase was a gradient, composed of solvent A:1 g/L ammonium acetate in Milli-Q water, and solvent B: MeCN.
# All experiments were done on an API 3000 triple quadrupole instrument (AB Sciex), operated in positive turbo-ionspray mode (‘TIS+’). The instrument parameters had been optimized during method development.
# […] Two sets of calibration samples were used, one set placed before and the other placed after the study samples. In addition, QC samples at 5 levels (two samples at each level) were included in the run, as performance indicators and for run acceptance.
# (§4) Evaluation of pharmacokinetic parameters was conducted by calculation from the mean concentration (n=5 pre-dose, n=3 post-dose) at each time point.
# [5] = test system: SH-SY5Y-hTAU441 cells; test: Cytotoxicity assay (MTT); type: cell-based; details: FIG. 6A
# Description: SH-SY5Y-hTAU441 cell viability was determined using the MTT assay. […] SH-SY5Y cell viability may also be measured after 24 and 48 h with the CellTiter-Glo® assay that measures ATP-levels. In addition, cytotoxicity may be assessed using the Celigo® with live cell microscopic imaging and a GE InCell Analyzer 2000 to measure multiple outcomes including apoptosis markers, membrane permeability, and mitochondrial activity.
# [6] = Mouse pharmacokinetics, brain tissue levels (LC-MS/MS); type: in vivo; details: for concentration at 0.5 h: 0.50 h; for half-life: read-out: Half life (t1/2) (converted)
# Description: as §2, §3, §4
# [7] = test system: T1, His-tagged-Hsp90; test: Hsp90 biochemical assay (AlphaLISA); type: binding
# T1 construct: fused on or other part: His tag (captured on Ni2+-coated beads)
# Description: This assay employs biotinylated geldanamycin, His-tagged-Hsp90, and Ni^+2 coated beads. This assay is homogenous and miniaturized to 384-well plates. Measurement of binding activity was performed on an Envision reader. […] This assay is the primary assay for evaluating compounds of the invention.
# [8] = mouse, plasma, Table 11, footnote: excluding IRN12 result
# [9] = mouse, plasma, Table 12, footnote: including IRN12 result
# [10] = mouse brain tissue, Table 14, footnote: excluding IRN 12 result
# [11] = mouse brain tissue, Table 15, footnote: including IRN 12 result
# [12] = mouse, brain homogenate, mouse brain homogenate, read-out: Mean Group Concentration, Homogenate
# [13] = mouse, brain, mouse brain tissue, read-out: Mean Group Concentration, Tissue
# [14] = mouse, brain, mouse brain tissue, Table 14, footnote: excluding IRN 12 result
# [15] = mouse, brain, mouse brain tissue, Table 15, footnote: including IRN 12 result
structure (smiles),measurement,setting,value
"Nc1nc(-c2c(Cl)cc(Cl)c3c2CCO3)c2[nH]ccc2n1 [compound 20, 4-(5,7-Dichloro-2,3-dihydrobenzofuran-4-yl)-5H-pyrrolo[3,2-d]pyrimidin-2-amine]",expression of Hsp70,"[1]; Western blot, FIG. 5B",increase in the expression of Hsp70
same,expression of Hsp90,"[1]; Western blot, FIG. 5B, relative to variation in concentration",expression of Hsp90 remains unchanged
same,EC50,[1]; read-out: Hsp 70 agonist activity,> 10000 nM
same,Papp A→B,[2],28 ×10⁻⁶ cm/s
same,efflux ratio,[3],0.9
same,"Mean Group Concentration, plasma",[4]; 0.25 h,^a Excluding IRN 12 result: 14950 ng/mL
same,"Plasma concentration, individual animals","[4]; 15 minutes post dose (B_0.25), values above 8000 ng/mL out of range, indicative","17,900 ^b ng/mL and 12,000 ^b ng/mL"
same,"Plasma concentration, individual animals","[4]; 30 minutes post dose (C_0.5), out of range (>8000 ng/mL), indicative","11,500 ^b ng/mL and 10,500 ^b ng/mL and 11,100 ^b ng/mL"
same,"Plasma concentration, individual animals",[4]; 1 hour post dose (D_1),"7,130 ng/mL and 7,470 ng/mL"
same,"Plasma concentration, individual animals",[4]; 2 hours post dose (E_2),"4,180 ng/mL and 4,440 ng/mL"
same,"Plasma concentration, individual animals",[4]; 8 hours post dose (F_8),99.3 ng/mL and 22.5 ng/mL and 21.9 ng/mL
same,Kelimination,"[4]; Table 11, footnote: excluding IRN12 result",0.725 per hour (h^−1)
same,Kelimination,"[4]; Table 12, footnote: including IRN12 result",0.730 per hour (h^−1)
same,concentration at 0.25 h,"[4]; mouse, plasma, 0.25 h, n=3 incl. IRN 12, read-out: Mean Group Concentration, plasma",9970 ng/mL
same,concentration at 15 min,"[4]; mouse, plasma, 15 minutes post dose (B_0.25), values above 8000 ng/mL out of range, indicative, read-out: Plasma concentration, individual animals",2.66 ng/mL
same,concentration at 0.5 h,"[4]; mouse, plasma, 0.50 h, read-out: Mean Group Concentration, plasma",11000 ng/mL
same,concentration at 1 h,"[4]; mouse, plasma, 1.00 h, read-out: Mean Group Concentration, plasma",7160 ng/mL
same,concentration at 1 h,"[4]; mouse, plasma, 1 hour post dose (D_1), read-out: Plasma concentration, individual animals",6890 ng/mL
same,concentration at 2 h,"[4]; mouse, plasma, 2.00 h, read-out: Mean Group Concentration, plasma",4260 ng/mL
same,concentration at 2 h,"[4]; mouse, plasma, 2 hours post dose (E_2), read-out: Plasma concentration, individual animals",4150 ng/mL
same,concentration at 8 h,"[4]; mouse, plasma, 8.00 h, read-out: Mean Group Concentration, plasma",47.9 ng/mL
same,AUC(0-inf),[4]; [8],27100 ng·h/mL
same,Cmax,[4]; [8],11000 ng/mL
same,Tmax,[4]; [8],30 min
same,AUC(0-t),[4]; [8],27000 ng·h/mL
same,half-life,[4]; [8],57.6 min
same,AUC(0-inf),[4]; [9],28300 ng·h/mL
same,Cmax,[4]; [9],15000 ng/mL
same,Tmax,[4]; [9],15 min
same,AUC(0-t),[4]; [9],28300 ng·h/mL
same,half-life,[4]; [9],57 min
same,cell viability,[5],did not affect cell viability
same,"Homogenate concentration, individual animals","[6]; mouse brain homogenate, 15 minutes post dose (B_0.25), 0.00 = below LLOQ 0.988 ng/mL",0.00 ^a ng/mL and 1250 ng/mL
same,"Homogenate concentration, individual animals","[6]; mouse brain homogenate, 30 minutes post dose (C_0.5)",844 ng/mL and 1200 ng/mL
same,"Homogenate concentration, individual animals","[6]; mouse brain homogenate, 1 hour post dose (D_1)",859 ng/mL and 789 ng/mL
same,"Homogenate concentration, individual animals","[6]; mouse brain homogenate, 2 hours post dose (E_2)",385 ng/mL and 294 ng/mL
same,"Homogenate concentration, individual animals","[6]; mouse brain homogenate, 8 hours post dose (F_8)",7.53 ng/mL and 1.83 ng/mL and 1.53 ng/mL
same,"Mean Group Concentration, Tissue","[6]; mouse brain tissue, 0.25 h, excluding IRN 12 result",^a excluding IRN 12 result: 15772 ng/g.
same,"Mean Group Concentration, Tissue","[6]; mouse brain tissue, 0.25 h, incl. IRN 12",10515 ^a ng/g
same,AUC(0-inf),[6]; [10],22900 ng·h/mL
same,Kelimination,[6]; [10],0.769 per hour (h^−1)
same,AUC(0-t),"[6]; mouse brain tissue, Table 14, footnote: excluding IRN 12 result, read-out: AUC(0-8 h)",22900 ng·h/mL
same,Tmax,"[6]; mouse brain tissue, Table 14, footnote: excluding IRN 12 result, read-out: Tmax",15 min
same,Kelimination,[6]; [11],0.789 per hour (h^−1)
same,Tmax,[6]; [11],15 min (h)
same,"Brain concentration, individual animals","[6]; mouse brain, 15 minutes post dose (B_0.25), 0.00 = below LLOQ",0.00 ^a ng/g and 10870 ng/g
same,"Brain concentration, individual animals","[6]; mouse brain, 30 minutes post dose (C_0.5)",7371 ng/g and 10480 ng/g
same,"Brain concentration, individual animals","[6]; mouse brain, 1 hour post dose (D_1)",7486 ng/g and 6846 ng/g
same,"Brain concentration, individual animals","[6]; mouse brain, 2 hours post dose (E_2)",3341 ng/g and 2518 ng/g
same,"Brain concentration, individual animals","[6]; mouse brain, 8 hours post dose (F_8)",63.0 ng/g and 15.0 ng/g and 12.9 ng/g
same,concentration at 0.25 h,"[6]; mouse, brain homogenate, mouse brain homogenate, 0.25 h, incl. IRN 12, read-out: Mean Group Concentration, Homogenate",1180 ng/mL
same,concentration at 15 min,"[6]; mouse, brain homogenate, mouse brain homogenate, 15 minutes post dose (B_0.25), 0.00 = below LLOQ 0.988 ng/mL, read-out: Homogenate concentration, individual animals",2300 ng/mL
same,concentration at 0.5 h,[6]; [12],1150 ng/mL
same,concentration at 30 min,"[6]; mouse, brain homogenate, mouse brain homogenate, 30 minutes post dose (C_0.5), read-out: Homogenate concentration, individual animals",1400 ng/mL
same,concentration at 1 h,"[6]; mouse, brain homogenate, mouse brain homogenate, 1.00 h, read-out: Mean Group Concentration, Homogenate",845 ng/mL
same,concentration at 1 h,"[6]; mouse, brain homogenate, mouse brain homogenate, 1 hour post dose (D_1), read-out: Homogenate concentration, individual animals",888 ng/mL
same,concentration at 2 h,"[6]; mouse, brain homogenate, mouse brain homogenate, 2.00 h, read-out: Mean Group Concentration, Homogenate",363 ng/mL
same,concentration at 2 h,"[6]; mouse, brain homogenate, mouse brain homogenate, 2 hours post dose (E_2), read-out: Homogenate concentration, individual animals",410 ng/mL
same,concentration at 8 h,[6]; [12],3.63 ng/mL
same,concentration at 0.5 h,[6]; [13],9820 ng/g
same,concentration at 1 h,"[6]; mouse, brain, mouse brain tissue, 1.00 h, read-out: Mean Group Concentration, Tissue",7280 ng/g
same,concentration at 2 h,"[6]; mouse, brain, mouse brain tissue, 2.00 h, read-out: Mean Group Concentration, Tissue",3150 ng/g
same,concentration at 8 h,[6]; [13],30 ng/g
same,Cmax,[6]; [14],10500 ng/g
same,half-life,[6]; [14],54 min
same,Cmax,[6]; [15],15800 ng/g
same,half-life,[6]; [15],52.8 min
same,concentration at 15 min,"[6]; mouse, brain, mouse brain, 15 minutes post dose (B_0.25), 0.00 = below LLOQ, read-out: Brain concentration, individual animals",20700 ng/g
same,concentration at 30 min,"[6]; mouse, brain, mouse brain, 30 minutes post dose (C_0.5), read-out: Brain concentration, individual animals",11600 ng/g
same,concentration at 1 h,"[6]; mouse, brain, mouse brain, 1 hour post dose (D_1), read-out: Brain concentration, individual animals",7490 ng/g
same,concentration at 2 h,"[6]; mouse, brain, mouse brain, 2 hours post dose (E_2), read-out: Brain concentration, individual animals",3600 ng/g
same,IC50,"[7]; AlphaLISA, FIG. 5A, read-out: Hsp90 inhibitory activity IC50",740 ± 100 nM
same,IC50,"[7]; IC50 class, AlphaLISA (primary assay), read-out: Hsp90 inhibitory activity",< 1000 nM
